According to patent US11691992B2 (Anacor Pharmaceuticals, Inc., priority 2017, dated 2023):
pIC50: −log10 of the molar value.

Legend:
Format in all cases: cell-based
[1] = system: IL3000 T. congolense (drug sensitive) strain; assay: In vitro Alamar Blue 72 h drug sensitivity assay for T. congolense; details: Trypanosoma congolense; bloodstream form, 69 h + 3 h resazurin, 34° C.; classes A-C; read-out: IC50: I Org. Growth T. congolense IL-3000, 3 d
Procedure, shortened: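 Bloodstream-form trypanosomes in HMI medium with 20% bovine serum, exposed to compound for 69 h at 34 °C, 5% CO2, then resazurin for 3 h more. Fluorescence read at 536/588 nm. IC50 from 11-point sigmoidal dose-response curves, at least three independent runs.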

[2] = system: STIB719/ILRAD560 T. vivax (drug sensitive) strain; assay: Ex vivo Alamar Blue 48 h drug sensitivity assay for T. vivax; details: Trypanosoma vivax, ex vivo bloodstream forms from mouse, 45 hrs + 3 hrs resazurin, read-out: IC50: I Hypoxanthine Incorporation T. vivax STIB 719/ILRA D 560, 2 d
Experimental: Example 109. Ex Vivo Alamar Blue 48 h Drug Sensitivity Assay for T. vivax
[…] Test compounds were prepared as 10 mg/mL DMSO stocks for each assay run. Compounds were assayed in at least three separate, independent test runs and an 11-point dilution curve was used to determine the IC50 values. Bloodstream form trypanosomes were propagated and harvested from a highly parasitemic mouse (via cardiac puncture) and were incubated with test compounds for 45 hrs at 37° C. in a humidified atmosphere containing 5% CO2, supported in HMI media containing 20% bovine serum. […] Plates were then read using a fluorescent plate reader (Spectramax, Gemini XS, Bucher Biotec, Basel, Switzerland) using an excitation wavelength of 536 nm and an emission wavelength of 588 nm. Data points were averaged to generate sigmoidal dose-response curves and IC50 values were determined using Softmax Pro 5.2 software.

[3] = system: Trypanosoma brucei rhodesiense STIB 900 strain; assay: Trypanosoma brucei rhodesiense STIB 900 screening assay; details: STIB 900 bloodstream forms, 72 h, Alamar Blue, protocol of Example 114, read-out: Swiss TPH T b rhodesiense IC50
Experimental: Example 114. Trypanosoma brucei rhodesiense STIB 900 Screening Assay Procedure
The Trypanosoma brucei rhodesiense STIB 900 strain was isolated in 1982 from a human patient in Tanzania and after several mouse passages cloned and adapted to axenic culture conditions (Baltz, et al., EMBO Journal 4: 1273-1277 (1985); Thuita, et al., Acta Tropica 108: 6-10 (2008)). Minimum Essential Medium (50 μL) supplemented with 25 mM HEPES, 1 g/L additional glucose, 1% MEM non-essential amino acids (100×), 0.2 mM 2-mercaptoethanol, 1 mM Na-pyruvate and 15% heat inactivated horse serum was added to each well of a 96-well microtiter plate. Serial drug dilutions of seven 3-fold steps covering a range from 90 to 0.123 μg/mL were prepared. Then 10^4 bloodstream forms of T. b. rhodesiense STIB 900 in 50 μL was added to each well and the plate incubated at 37° C. under a 5% CO2 atmosphere for 72 h. 10 μL Alamar Blue (resazurin, 12.5 mg in 100 mL double-distilled water) was then added to each well and incubation continued for a further 2-4 h (Raz, et al., Acta Tropica 68: 139-47 (1997)). Then the plates were read with a Spectramax Gemini XS microplate fluorometer (Molecular Devices Corporation, Sunnyvale, Calif., USA) using an excitation wavelength of 536 nm and an emission wavelength of 588 nm. Data were transferred into the graphic program Softmax Pro (Molecular Devices), which calculated IC50 values.

[4] = system: L. infantum MHOM/MA(BE)/67 amastigotes in primary peritoneal mouse macrophages; assay: Leishmania infantum intracellular amastigote assay in mouse macrophages; details: Macrophage, 120 h, amastigotes in primary peritoneal mouse macrophages, 5 d, Giemsa staining, read-out: Inhibition of Organism Growth in Leishmania infantum MHOM/MA/BE/67, 5 d
Procedure, shortened: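 Amastigotes harvested from infected hamster spleen infected primary peritoneal mouse macrophages (5×10^5 amastigotes/well, 2 h, 37 °C). Compounds then present 5 d at 37 °C, 5% CO2. Parasite burden counted by microscopy after Giemsa staining, as % of untreated controls; IC50 from sigmoidal variable-slope fit.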

[5] = system: bloodstream forms of T. b. rhodesiense STIB 900; assay: T. brucei rhodesiense STIB 900 growth inhibition assay; details: Trypanosoma brucei; bloodstream forms, 72 h, Alamar Blue; protocol of Example 110; read-out: IC50: I Org. Growth T. brucei rhodesiense STIB 900, 3 d
Procedure, shortened: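 Bloodstream-form STIB 900 (10^4/well) were cultured in supplemented MEM with 15% horse serum and compound (90 to 0.123 μg/ml, 3-fold steps) for 72 h at 37 °C, 5% CO2. Viability was read by Alamar Blue fluorescence (ex 536/em 588 nm) after a further 2-4 h.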

Row | SMILES | pIC50 [3] | pIC50 [4] | pIC50 [1] | pIC50 [2] | pIC50 [5]
1 | Cc1c(C(=O)Nc2ccc3c(c2)B(O)OC3)nnn1-c1ccc(Cl)cn1 [Example 83, 1-(5-Chloropyridin-2-yl)-N-(1-hydroxy-1,3-dihydrobenzo[c][1,2]oxaborol-6-yl)-5-methyl-1H-1,2,3-triazole-4-carboxamide] | > 7.00 | > 5.52 | > 7.00 | 5.00 to 6.29 | > 7.00
2 | O=C(Nc1ccc2c(c1)B(O)OC2)c1cn(-c2ccc(Cl)cn2)nn1 [Example 59, 1-(5-Chloropyridin-2-yl)-N-(1-hydroxy-1,3-dihydrobenzo[c][1,2]oxaborol-6-yl)-1H-1,2,3-triazole-4-carboxamide] | > 7.00 | 4.70 to 5.52 | > 7.00 | 6.30 to 6.70 | 6.52 to 7.00
3 | O=C(Nc1ccc2c(c1)B(O)OC2)c1nnn(-c2ccccn2)c1CO [Example 55, N-(1-hydroxy-1,3-dihydrobenzo[c][1,2]oxaborol-6-yl)-5-(hydroxymethyl)-1-(pyridin-2-yl)-1H-1,2,3-triazole-4-carboxamide] |  |  | > 7.00 | > 6.70 | 
4 | O=C(Nc1ccc2c(c1)B(O)OC2)c1nnn(-c2ccccn2)c1CC(F)(F)F [Example 56, N-(1-hydroxy-1,3-dihydrobenzo[c][1,2]oxaborol-6-yl)-1-(pyridin-2-yl)-5-(2,2,2-trifluoroethyl)-1H-1,2,3-triazole-4-carboxamide] |  |  | 6.52 to 7.00 | 6.30 to 6.70 | 
5 | O=C(Nc1ccc2c(c1)B(O)OC2)c1nnn(-c2ccccn2)c1C1CC1 [Example 54, 5-cyclopropyl-N-(1-hydroxy-1,3-dihydrobenzo[c][1,2]oxaborol-6-yl)-1-(pyridin-2-yl)-1H-1,2,3-triazole-4-carboxamide] |  |  | > 7.00 | 6.30 to 6.70 | 
6 | O=C(Nc1ccc2c(c1)B(O)OC2)c1cn(-c2ncccc2Cl)nn1 [Example 58, 1-(3-Chloropyridin-2-yl)-N-(1-hydroxy-1,3-dihydrobenzo[c][1,2]oxaborol-6-yl)-1H-1,2,3-triazole-4-carboxamide] | > 7.00 | 4.70 to 5.52 | > 7.00 | > 6.70 | > 7.00
7 | Cc1c(C(=O)Nc2ccc3c(c2)B(O)OC3)nnn1-c1ncccc1Cl [Example 82, 1-(3-Chloropyridin-2-yl)-N-(1-hydroxy-1,3-dihydrobenzo[c][1,2]oxaborol-6-yl)-5-methyl-1H-1,2,3-triazole-4-carboxamide] | 6.60 to 7.00 | 4.70 to 5.52 | > 7.00 | > 6.70 | 6.52 to 7.00
8 | Cc1c(C(=O)Nc2ccc3c(c2)B(O)OC3)nnn1-c1cccc(C(F)(F)F)n1 [Example 48, N-(1-hydroxy-1,3-dihydrobenzo[c][1,2]oxaborol-6-yl)-5-methyl-1-(6-(trifluoromethyl)pyridin-2-yl)-1H-1,2,3-triazole-4-carboxamide] |  |  | 6.52 to 7.00 | 6.30 to 6.70 | 
9 | Cc1c(C(=O)Nc2ccc3c(c2)B(O)OC3)nnn1-c1cccc(C(F)(F)F)c1 [Example 87, N-(1-hydroxy-1,3-dihydrobenzo[c][1,2]oxaborol-6-yl)-5-methyl-1-(3-(trifluoromethyl)phenyl)-1H-1,2,3-triazole-4-carboxamide] | 6.60 to 7.00 | 4.70 to 5.52 | 6.52 to 7.00 | 5.00 to 6.29 | 6.52 to 7.00
10 | COCc1c(C(=O)Nc2ccc3c(c2)B(O)OC3)nnn1-c1ccccn1 [Example 53, N-(1-hydroxy-1,3-dihydrobenzo[c][1,2]oxaborol-6-yl)-5-(methoxymethyl)-1-(pyridin-2-yl)-1H-1,2,3-triazole-4-carboxamide] |  |  | > 7.00 | > 6.70 | 

Further lines, with some results ahead:

Row | pIC50 [3] | pIC50 [4] | SMILES | pIC50 [1] | pIC50 [2] | pIC50 [5]
11 | 5.70 to 6.59 | 4.00 to 4.70 | Cc1c(C(=O)Nc2ccc3c(c2)B(O)OC3(C)C)nnn1-c1ccccc1 [Example 92, N-(1-hydroxy-3,3-dimethyl-1,3-dihydrobenzo[c][1,2]oxaborol-6-yl)-5-methyl-1-phenyl-1H-1,2,3-triazole-4-carboxamide] | 4.00 to 6.51 | 5.00 to 6.29 | 5.00 to 6.51
12 | 5.70 to 6.59 | 4.00 to 4.70 | Cc1c(C(=O)Nc2ccc3c(c2)B(O)OC3(C)C)nnn1-c1ccccn1 [Example 85, N-(1-hydroxy-3,3-dimethyl-1,3-dihydrobenzo[c][1,2]oxaborol-6-yl)-5-methyl-1-(pyridin-2-yl)-1H-1,2,3-triazole-4-carboxamide] | 4.00 to 6.51 | 5.00 to 6.29 | 5.00 to 6.51
13 | 5.70 to 6.59 | 4.00 to 4.70 | CC1(C)OB(O)c2cc(NC(=O)c3cn(-c4ccccn4)nn3)ccc21 [Example 62, N-(1-hydroxy-3,3-dimethyl-1,3-dihydrobenzo[c][1,2]oxaborol-6-yl)-1-(pyridin-2-yl)-1H-1,2,3-triazole-4-carboxamide] | 4.00 to 6.51 | 5.00 to 6.29 | 5.00 to 6.51
14 | > 7.00 | 4.70 to 5.52 | Cc1nn(-c2ccccc2)nc1C(=O)Nc1ccc2c(c1)B(O)OC2 [Example 72, N-(1-hydroxy-1,3-dihydrobenzo[c][1,2]oxaborol-6-yl)-5-methyl-2-phenyl-2H-1,2,3-triazole-4-carboxamide] | > 7.00 | 6.30 to 6.70 | 6.52 to 7.00
15 | 6.60 to 7.00 | > 5.52 | COc1ccccc1-n1nnc(C(=O)Nc2ccc3c(c2)B(O)OC3)c1C [Example 88, N-(1-hydroxy-1,3-dihydrobenzo[c][1,2]oxaborol-6-yl)-1-(2-methoxyphenyl)-5-methyl-1H-1,2,3-triazole-4-carboxamide] | > 7.00 | 6.30 to 6.70 | 6.52 to 7.00
